Measured values: PMC4076215, “Nickel(II) Complex of Polyhydroxybenzaldehyde N4-Thiosemicarbazone Exhibits Anti-Inflammatory Activity by Inhibiting NF-κB Transactivation” (PLoS ONE, 2014)
“Also recorded” adds a separate entry of the source.

What was measured:
[1] = test system: NF-κB p65 nuclear translocation; experiment: NF-κB p65 immunofluorescence staining, LPS-stimulated RAW264.7; format: cell-based; conditions: RAW264.7, 25 µg/ml pre-treatment 4 h, LPS 1 h
Description: NF-κB Activation Kits (Thermo Scientific) were used as previously described. Cells were pretreated with compounds for 4 h before being stimulated with lipopolysaccharide (LPS) ortumour necrosis factor α (TNFα) for 1 h. Cells were then fixed and permeabilized before probing with NF-κB p65 antibody for 1 h. Staining solution (containing DyLight 488 Goat Anti-Rabbit and Hoechst dye) was then added and incubated for 1 h. The plate with stained cells was evaluated using a Cellomics ArrayScan HCS Reader (Cellomics, PA, USA). Data were captured, extracted and analyzed with ArrayScan II Data Acquisition and Data Viewer version 3.0 (Cellomics).
NF-κB acts as a central mediator of inflammatory responses and compounds that inhibit NF-κB activation are potential anti-inflammatory agents. To evaluate this, we performed immunofluorescence staining of NF-κB p65. […] In response to LPS stimulation, NF-κB p65 translocated from cytoplasm into the nucleus, implying NF-κB activation (Figure 3). […] Moreover, we observed that complex 6–8 required higher concentration (>50 µg/ml) to elicit similar inhibitory effect (data not shown).
Figure 3 Effect of N4-substituteted thiosemicarbazone complexes on LPS-induced NF-κB nuclear transloction in RAW264.7 macrophage cells. Staining of Hoechst (nucleus) and NF-κB in RAW264.7 cells. […]

[2] = test system: IκBα degradation/phosphorylation and p65 translocation; experiment: Immunoblot, TNFα-stimulated HeLa S3; format: cell-based, human; conditions: HeLa S3, pretreated 4 h, TNFα stimulation
Description: Cells were pretreated with or without of complex 5 (25 µg/ml or 50 µg/ml) for 4 h before treatment with LPS (10 ng/ml) or TNFα (10 ng/ml), for the indicated times. The cytoplasmic extracts were prepared by using the hypotonic lysis buffer (10 mM Tris, pH 7.5; 1.5 mM MgCl2; 10 mM KCl; 0.5 mM DTT; 0.5 mM PMSF; 1× Protease Inhibitor, 0.1% NP40) followed by incubation on ice for 20 min and centrifugation at 3k rpm at 4°C for 10 min. The supernatants were collected as cytoplasmic extracts. The nuclear pellets were resuspended in the whole cell lysis buffer (25 mM Tris, pH7.5; 420 mM NaCl; 1.5 mM MgCl2; 0.2 mM EDTA; 25% Glycerol; 0.5 mM DTT; 0.5 mM PMSF; 1× Protease Inhibitor). The nuclear extracts were then collected by centrifugation at 15 krpm at 4°C for 10 min. Immunoblotting was performed using antibodies against PARP (F-2, N-20), HSP90a (C-20), p65 (C-20), IκBα (C-21) and p-IκBα from Santa Cruz Biotech.
To examine whether complex 5 blocks the activation of NF-κB by another agonist, similar experiments were performed on HeLa S3 cells induced with TNFα. Similar to LPS-treated RAW264.7 cells, TNFα-induced translocation of NF-κB p65 in HeLa S3 cells (Figure 5A). […]
Figure 5 Complex 5 blocks TNFα-induced NF-κB nuclear translocation. […] Western blot signal intensities were quantified using ImageJ software. […]

COX-2 expression = experiment: TNF-induced COX-2 expression; format: cell-based; conditions: Figure S1
Description: In addition, we investigated the effect of complex 5 on NF-κB-mediated gene expression in response to TNFα stimulation in human HeLa S3 cells. We treated HeLa S3 cells with complex 5 for 4 h before TNFα treatment for 4 h.
Supplementary file pone.0100933.s001.pdf: Figure S1 Complex 5 inhibits TNF-induced COX2 expression. (PDF) Click here for additional data file.

[3] = test system: NF-κB transactivation activity; experiment: NF-κB luciferase reporter assay in 293T-luc cells; format: cell-based; conditions: 293T-luc, 12.5, 25, 50 µg/ml 4 h, TNFα 12 h
Description: 293T cells were transduced with a lentivirus carrying luciferase reporter driven by NF-κB enhancer found in immunoglobulin kappa light chain gene to prepare 293T-luc cells. The 293T-luc cells were pretreated with or without of complex 5 (12.5 µg/ml, 25 µg/ml, 50 µg/ml) for 4 h. The cells were later stimulated with TNFα (10 ng/ml) for 12 h. Cells were scraped, collected into 1.5 ml tubes and centrifuged at 1.5 k rpm 4°C for 5 min before removing the culture medium. Cell pellets were resuspended in 50 µl luciferase lysis buffer (100 mM Sodium Phosphate buffer, pH7.8; 8 mM MgCl2; 1% Triton X-100; 15% glycerol; 1 mM DTT). A total volume of 50 µl of luciferase substrate (containing 1 mM ATP; 0.25 mM luciferin; 1% BSA) was added to each well on a white 96-well plate containing 20 µg lysate. Luciferase activity was measured in 96-well plate with a VarioskanFlash microplate reader (Thermo Scientific).
Figure 6 Complex 5 inhibits NF-κB transactivation activity. (A) RAW264.7 cells pretreated with or without complex 5 for 4 h were treated with LPS for 4 h. The expression of TNFα, IFNβ, IL6 and IP10 were measured by QPCR. […] The expression of TNFα, IL8, CCL5, ICAM1, IL6 and A20 were measured by QPCR. […] The expression of IL8 and TNF were measured by QPCR. […] Cell lysates were prepared and the luciferase activities were measured. […]

SMILES: NC1=[S+][Ni-2]2([P+](c3ccccc3)(c3ccccc3)c3ccccc3)[O]c3c(O)cccc3C=[N+]2N1.[Cl-] [complex 5, {2-[(2-Carbamothiolylhydrazin-1-ylidene-[kappa]2N1,S)methyl]-6-hydroxyphenolato-[kappa]O1}(triphenylphosphine-[kappa]P)nickel(II) chloride]
- Inhibition of LPS-mediated NF-κB p65 nuclear translocation [1]: efficiently inhibited; also recorded: marked inhibition
- IκBα degradation and p65 translocation (immunoblot) [2]: dramatically reduced
- TNF-mediated phosphorylation of IκBα (immunoblot) [2]: completely abolished
- TNF-induced expression of COX-2 (COX-2 expression): inhibited TNF-induced expression of COX-2 in a dose dependent manner
- TNFα-induced NF-κB luciferase activity [3]: significantly reduced the luciferase activity in a dose-dependent manner
